Assay results from PMC8659091, “Preparation, Characterization, and Bioavailability of Host-Guest Inclusion Complex of Ginsenoside Re with Gamma-Cyclodextrin” (Molecules, 2021).
Where two headings read alike, the source gives them in different places.

What was measured:
[1] = Phase solubility study of G-Re with CDs in water; format: physicochemical; details: for stability constant Ks: G-Re with the CD, 1:1 stoichiometry; for △G: Gibbs free energy change of complexation with G-Re, ΔG = −RTln Ks; for Ks: apparent stability constant of G-Re with the CD, Ks=slope/S0(1-slope); for Ks / 1/Slope / Slope: water, 25 °C; for 1/Slope: phase solubility of G-Re; for Slope: slope of phase solubility curve of G-Re vs CD concentration
Procedure: Phase solubility studies were performed in water in accordance with the method formerly stated by Higuchi and Connors. In brief, an excess amount of G-Re was supplemented into 10 mL Eppendorf tubes with aqueous solution, including various concentrations of α-CD, β-CD, and γ-CD, respectively. Suspensions were vigorously shaken in 25 °C water bath for a week. After equilibrium was reached, the solutions were centrifuged for 5 min at 4000 rpm (1500 g). Meanwhile, a 0.22 μm membrane was used to further filter the supernatant. The filtrate was diluted and HPLC was employed to determine G-Re content.
The phase solubility curves were obtained with the regression of the concentrations of cyclodextrin (mol L^−1) as X-axis and the concentration of G-Re (mol L^−1) as Y-axis. The value of apparent stability constant (Ks) was defined by using the straight-line portion in the phase-solubility to the equation as follows: Ks=slope/S0(1-slope)
In this formula, R can be seen as the general gas constant, which equaled 8.314 J/mol K, and T can be considered as the experimental operating temperature.
(§1) The contents of G-Re from the dissolution sample and phase solubility sample were determined with the help of HPLC on the C18 column (Ascentis® Express, 10 cm × 2.1 mm, 2.6 μm, Sigma, USA), which was installed an Agilent system. This system consisted of a micro degasser, an auto plate sampler, a system binary pump, as well as a thermostatically controlled column apartment at 30 °C. Samples were separated under elution conditions at A (acetonitrile) and B (water) = 19: 81 (v/v). Then, the flow rate was set at 0.5 mL per minute and the injection volume at 5 μL, while the G-Re was detected spectrophotometrically at 205 nm.

[2] = Dissolution test in water (rotatory-basket method); format: physicochemical; details: at 30 min, 37 °C, 100 rpm, 20 mg as Re in 200 mL
Procedure: G-Re, G-Re-γ-CD physical mixtures, and the G-Re-γ-CD ICs (20 mg as Re) were inserted into a basket in a automatic dissolution testing system (RC806D, Tianjin Tianda Technology Co.,Ltd, Tianjin, China) containing 200 mL of water according to the dissolution method (Chp. 2020 Vol II Addium XC rotatory-basket method). The speed was set at 100 rpm, and the temperature was 37 ± 0.5 °C. Then an equal amount of solution (1 mL) needed to be taken at timepoints of 5, 15, 30, 45, and 60 min; at the same time, 1 mL solution should be replaced. As described below, the determination of G-Re concentration by 205 nm high-performance liquid chromatography was feasible. The G-Re concentration was detected with the same HPLC method applied in the phase solubility test.
as §1

[3] = Pharmacokinetic / bioavailability study after single oral administration, plasma LC-MS/MS; format: in vivo, Sprague-Dawley rats; details: rats, 100 mg/kg, mean ± SD
Procedure: The animal studies carried out in this study strictly followed the instructions of the Animal Care and Use Committee of the Changchun university of Chinese medicine (Approval Number: 20190030). Adult male Sprague-Dawley rats (200-220 g; Yisi Experimental Animal Technology Co., Ltd., Changchun, China Approved number: SCXK (JI) 2018-0007) were used for the pharmacokinetic studies. All rats were not allowed to be fed for 24 h before the oral dosing and likewise after the drug administration. Besides, all of them needed to be brought up under a controlled temperature ranging from 20 to 24 °C with a 12-h light/dark cycle. G-Re powder and G-Re-γ-CD complex were suspended in double-distilled water prior to use at 100 mg/kg. […] The blood samples were centrifuged for 10 min at 4000 rpm to harvest the plasma sample (100 μL). Then, the G-Rf (10 μL, 10 ng/mL) was added into each tube rapidly to work as the inherent criterion. After that, a mixed 0.5 mL methanol-acetonitrile (60:40, v/v) should be added for precipitating proteins and extracting interested compounds. The samples were then rotated for 3 min and centrifuged at 15,000×grams for 10 min. By separating and evaporating, the supernatant was obtained on the condition that the nitrogen flow dried gently at 40 °C. Additionally, the residue was reconstituted by vortexing for 1 min with 0.2 mL methanol-water (80:20, v/v). Furthermore, the supernatant was transferred into auto-sampler vials using 5 μL aliquot to inject to the LC-MS/MS system. This method could be carried out by a combination of a Thermo TSQ Endura triple-quadrupole tandem mass spectrometer (Thermo Fisher Inc., Waltham, USA), which is a method named electrospray ionization (ESI), and an Ultimate 3000 LC system which is composed of a vacuum degasser, a quaternary pump, as well as an auto-sampler. Xcalibur 2.2 (SP1.48) software was used to acquire and analyze the data (Thermo Fisher Inc., Waltham, USA). After that, the separation of chemical materials was conducted by using the reverse-phase Accucore C18 analytical column (100 mm × 2.1 mm, 2.6 μm, Thermo Fisher Inc., Waltham, USA). This column was available for the linear gradient elution by using the mobile phase, which consisted of water embracing 0.1% formic acid (A) and acetonitrile (B). Steps are described as follows: 0 min (A 75%-B 25%)-5.0 min (A 70%-B 30%)-8 min (A 68%-B 32%)-9 min (A 64%-B 36%)-16 min (A 63%-B 37%)-16.8 min (A 52%-B 48%)-17.8 min (A 30%-B 70%)-18.8 min (A 10%-B 90%)-20.8 min (A 75%-B 25%)-25 min (A 75%-B 25%). The flow rate should be 0.2 mL per minute, and the volume of injection needed to be 5 μL. This process needed to be performed using the ESI negative ionization and multiple reactions monitoring (MRM) mode. Furthermore, the parameters of spray voltage were 3 kV, the parameters of capillary temperature was 325 °C, and the pressure of nitrogen sheath gas and auxiliary gas were 30 arb and 10 arb. The formic acid adduct [M+HCOO]- is the dominant parent ion of products. […] Finally, the ion transition situations for multiple reactions monitoring (MRM) were m/z 945.5→637.3 and 637.3→475.3 for G-Re, m/z 799.5→637.3 and 637.3→475.3 for IS. After oral administration, non-compartment approaches could be utilized [NT]-Re's t pharmacokinetic parameters. The part under the plasma concentration-time curve increasing from 0 to infinity (AUC0→∞) could be computed by the equation AUC0→∞ = AUCt + Ct/k. In this equation, Ct could be seen as the last concentration which could be quantized, and the calculation of k could be conducted by a straight-line's slope in plasma disappearance's terminal phase. […] Furthermore, with the help of linear trapezoidal approximation, it was easy to calculate the area below the plasma concentration-time curve increasing from 0 to the time of the last quantifiable concentration (AUCt). The calculation of bioavailability value for G-Re's oral doses needed to be conducted according to the AUC's dose-adjusted ratio. […]

[4] = design: method as in PMID 22314249, PMID 25197955, PMID 19729261; details: after oral administration; cited from earlier work
[5] = male, Sprague-Dawley, rat, plasma, n = 6

Row | stability constant Ks [1] | △G [1] | Ks [1] | 1/Slope [1] | Slope [1] | inclusion constant relative to that of α-CD ([1]; G-Re as guest) | SMILES | dissolution rate [2] | AUC(0-inf) [3, 5] | Cmax [3, 5] | MRT [3, 5] | half-life [3, 5] | tmax [3, 5] | AUC(0-t) ([3]; male, Sprague-Dawley, rat, plasma, n = 6, called AUC0–t, read-out: AUC0–24h) | CLt ([3]; n = 6) | Vdss ([3]; n = 6) | bioavailability [4] | tmax [4]
1 | 22 M⁻¹ | -1.831 kcal/mol | 22 M⁻¹ | 116.28 | 0.0086 |  | OC[C@H]1O[C@@H]2O[C@H]3[C@H](O)[C@@H](O)[C@@H](O[C@H]4[C@H](O)[C@@H](O)[C@@H](O[C@H]5[C@H](O)[C@@H](O)[C@@H](O[C@H]6[C@H](O)[C@@H](O)[C@@H](O[C@H]7[C@H](O)[C@@H](O)[C@@H](O[C@H]1[C@H](O)[C@H]2O)O[C@@H]7CO)O[C@@H]6CO)O[C@@H]5CO)O[C@@H]4CO)O[C@@H]3CO [α-CD] |  |  |  |  |  |  |  |  |  |  | 
2 |  | -5.673 kcal/mol | 14410 M⁻¹ | 1.18 | 0.8494 | 655 times | OC[C@H]1O[C@@H]2O[C@H]3[C@H](O)[C@@H](O)[C@@H](O[C@H]4[C@H](O)[C@@H](O)[C@@H](O[C@H]5[C@H](O)[C@@H](O)[C@@H](O[C@H]6[C@H](O)[C@@H](O)[C@@H](O[C@H]7[C@H](O)[C@@H](O)[C@@H](O[C@H]8[C@H](O)[C@@H](O)[C@@H](O[C@H]9[C@H](O)[C@@H](O)[C@@H](O[C@H]1[C@H](O)[C@H]2O)O[C@@H]9CO)O[C@@H]8CO)O[C@@H]7CO)O[C@@H]6CO)O[C@@H]5CO)O[C@@H]4CO)O[C@@H]3CO [γ-CD] |  |  |  |  |  |  |  |  |  |  | 
3 | 612 M⁻¹ | -3.7976 kcal/mol | 612 M⁻¹ | 5.16 | 0.1935 |  | OC[C@H]1O[C@@H]2O[C@H]3[C@H](O)[C@@H](O)[C@@H](O[C@H]4[C@H](O)[C@@H](O)[C@@H](O[C@H]5[C@H](O)[C@@H](O)[C@@H](O[C@H]6[C@H](O)[C@@H](O)[C@@H](O[C@H]7[C@H](O)[C@@H](O)[C@@H](O[C@H]8[C@H](O)[C@@H](O)[C@@H](O[C@H]1[C@H](O)[C@H]2O)O[C@@H]8CO)O[C@@H]7CO)O[C@@H]6CO)O[C@@H]5CO)O[C@@H]4CO)O[C@@H]3CO [β-CD] |  |  |  |  |  |  |  |  |  |  | 
4 |  |  |  |  |  |  | CC(C)=CCC[C@](C)(O[C@@H]1O[C@H](CO)[C@@H](O)[C@H](O)[C@H]1O)[C@H]1CC[C@]2(C)[C@@H]1[C@H](O)C[C@@H]1[C@@]3(C)CC[C@H](O)C(C)(C)[C@@H]3[C@@H](O[C@@H]3O[C@H](CO)[C@@H](O)[C@H](O)[C@H]3O[C@@H]3O[C@@H](C)[C@H](O)[C@@H](O)[C@H]3O)C[C@]12C [G-Re, Ginsenoside Re] | 6.73% | 130 ± 54.1 ng·h/mL | 32.2 ± 8.15 ng/mL | 5.15 ± 0.968 h | 12.2 ± 1.56 h | 1.02 ± 0.036 h | 113 ± 44.6 ng·h/mL | 2.401 ± 0.52 L/h | 13.691 ± 3.74 L/kg | low | short
